Several values for one entry are separate records, joined by “and”; a condition that tells them apart may be missing. Equal values may be shown once.
Legend:
[1] = biological target: T1, ENT1 (Homo sapiens, UniProt Q99808); assay: Inhibition of 3H-nucleoside influx by BAs in ENT1-expressing Xenopus oocytes; format: cell-based; settings: 3H-Ado 20 μM, sodium-free buffer; for IC50: read-out: ENT1 IC50 (Ado uptake); for ENT1 % uptake inhibition (Ado): BA 100 μM
T1 construct: The complete ORF of ENT1 (amplified using forward primer); expressed in transfected cells; host or cells: Xenopus laevis oocytes injected with in vitro-transcribed capped mRNA from pOX-hENT1
T1 sequence (Q99808 1-456): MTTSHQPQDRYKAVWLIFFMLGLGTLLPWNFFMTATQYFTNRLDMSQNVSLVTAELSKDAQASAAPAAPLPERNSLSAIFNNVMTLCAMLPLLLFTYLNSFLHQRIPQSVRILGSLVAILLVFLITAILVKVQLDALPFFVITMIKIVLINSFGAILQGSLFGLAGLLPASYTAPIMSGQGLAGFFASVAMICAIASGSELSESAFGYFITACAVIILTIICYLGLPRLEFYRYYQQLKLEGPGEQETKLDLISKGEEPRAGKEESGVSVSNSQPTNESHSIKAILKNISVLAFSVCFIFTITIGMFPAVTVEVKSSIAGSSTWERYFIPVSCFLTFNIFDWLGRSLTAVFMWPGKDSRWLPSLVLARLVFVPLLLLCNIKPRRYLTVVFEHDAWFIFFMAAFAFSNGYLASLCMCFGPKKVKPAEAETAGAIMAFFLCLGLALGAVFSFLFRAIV
Source text: (§1) We expressed individual ENTs (ENT1, ENT2, and ENT3) in X. laevis oocytes (as described above) and analyzed the Ado influx from each of the ENTs in the presence of different BAs to better understand whether the inhibition profiles differ across human ENTs. […] We also conducted an analysis of the concentration-dependent inhibition of Ado transport to estimate the IC50 values of the BAs (Fig. 4, D–F and Table 2).
(§2) Inhibition of Ado influx in H2O- and ENT-injected oocytes by treatment with different BAs at 100 μM. D–F, concentration-dependent inhibition of Ado influx in ENT-injected oocytes by different BAs. The bars represent the mean ± SD (n = 8–12 oocytes). A representative experiment from 3 to 5 independent experiments is presented. Statistical analysis was performed using one-way ANOVA with Dunnett’s multiple comparisons test; ∗p < 0.032, ∗∗p < 0.0021, ∗∗∗∗p < 0.0001.
(§3) The generated pOX expression constructs were linearized with either the Not1 or Sac1 restriction enzymes. The digested products were purified via phenol‒chloroform extraction. The mRNAs were synthesized using mMESSAGE mMACHINE (Ambion) transcription kits according to the manufacturer’s instructions. The mRNAs were purified via lithium precipitation. Oocytes were procured from Ecocyte. Prior to experiments, procured oocytes were defolliculated by treating with collagenase A-OR II solution followed by washing with Barth’s solution. Following microscopic verification, selected oocytes were incubated to recover overnight at 25 °C in a shaker incubator. Fifty nanoliters (400–800 ng/μl) of equal amounts of mRNAs were injected into defolliculated oocytes the next day. Expression of plasmids was analyzed after RNA isolation from oocyte extracts and conducting qPCR analysis with gene-specific primers as described earlier ([30]). The injected oocytes were incubated at 15 °C for 24 h before transport assays were performed. […] Uptake was terminated by washing the oocytes three times with arrest buffer containing 20 mM uridine. Individual oocytes were shaken overnight in 10% SDS for complete dissolution, and then the radioactivity was quantified with a Beckman liquid scintillation counter. The data are presented as the mean ± SD (n = 8–12 oocytes). A representative experiment from 3 to 5 independent experiments is presented.

[2] = biological target: T2, ENT2 (Homo sapiens, UniProt Q14542); assay: Inhibition of 3H-nucleoside influx by BAs in ENT2-expressing Xenopus oocytes; format: cell-based; design: expressed in transfected cells; host or cells: Xenopus laevis oocytes injected with in vitro-transcribed capped mRNA from pOX-hENT2; settings: for IC50 / ENT2 % uptake inhibition (Ado): 3H-Ado 20 μM, sodium-free buffer; for IC50: read-out: ENT2 IC50 (Ado uptake)
T2 sequence (Q14542 1-456): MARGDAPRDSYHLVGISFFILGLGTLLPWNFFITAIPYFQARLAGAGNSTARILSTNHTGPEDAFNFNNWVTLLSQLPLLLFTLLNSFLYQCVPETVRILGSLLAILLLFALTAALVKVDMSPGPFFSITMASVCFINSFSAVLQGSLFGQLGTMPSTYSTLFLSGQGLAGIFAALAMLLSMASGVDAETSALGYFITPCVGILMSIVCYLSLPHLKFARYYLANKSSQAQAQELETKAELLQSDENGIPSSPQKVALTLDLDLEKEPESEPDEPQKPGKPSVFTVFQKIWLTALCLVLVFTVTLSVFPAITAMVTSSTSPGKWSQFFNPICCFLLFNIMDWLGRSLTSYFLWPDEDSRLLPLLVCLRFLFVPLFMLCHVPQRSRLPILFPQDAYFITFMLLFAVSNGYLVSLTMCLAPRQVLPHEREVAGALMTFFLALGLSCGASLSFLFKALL
Source text: as §1, §2, §3

[3] = biological target: T3, ENT3 (Homo sapiens, UniProt Q9BZD2); assay: Inhibition of 3H-nucleoside influx by BAs in ENT3-expressing Xenopus oocytes; format: cell-based; settings: for IC50 / ENT3 % uptake inhibition (Ado): 3H-Ado 20 μM, sodium-free buffer; for IC50: read-out: ENT3 IC50 (Ado uptake)
T3 construct: plasma membrane–directed ENT3 with a truncated N-terminus (that harbors lysosomal targeting motif); expressed in transfected cells; host or cells: Xenopus laevis oocytes injected with in vitro-transcribed mRNA from pOX-Δ36hENT3
T3 sequence (Q9BZD2 with tags, fused parts or gaps): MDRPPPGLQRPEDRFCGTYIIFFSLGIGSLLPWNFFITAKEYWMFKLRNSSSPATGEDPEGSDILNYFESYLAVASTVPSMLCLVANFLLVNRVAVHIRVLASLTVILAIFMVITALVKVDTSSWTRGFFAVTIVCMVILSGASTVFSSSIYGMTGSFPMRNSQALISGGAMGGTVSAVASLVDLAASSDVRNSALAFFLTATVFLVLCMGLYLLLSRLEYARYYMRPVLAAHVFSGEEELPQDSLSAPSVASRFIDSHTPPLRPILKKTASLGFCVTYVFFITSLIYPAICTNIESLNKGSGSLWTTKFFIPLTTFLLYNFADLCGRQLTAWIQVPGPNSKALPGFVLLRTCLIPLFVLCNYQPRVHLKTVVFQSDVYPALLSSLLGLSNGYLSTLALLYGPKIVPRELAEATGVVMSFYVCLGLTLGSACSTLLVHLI
Source text: as §1, §2, §3

[4] = biological target: T2, ENT2; assay: BA transport by ENT2-injected oocytes quantified by LC-MS/MS; format: cell-based; design: expressed in transfected cells; host or cells: Xenopus laevis oocytes injected with in vitro-transcribed capped mRNA from pOX-hENT2; settings: pH 7.4, p < 0.001 compared with water-injected oocytes
Protocol: Therefore, we studied several different BAs and used a liquid chromatography–tandem mass spectrometry (LC‒MS/MS) method to quantify the transport activity of H2O-injected and ENT2 mRNA-injected oocytes using TCA as a positive control. […] We subsequently tested the ability of ENT2 to transport BAs at different physiological pH values ranging from pH 5.5 to pH 7.4 by varying the pH of the transport buffers in which the assay was conducted.
The mass spectrometric validation of the transport of all metabolites was performed with oocytes using a previously reported method ([24]). […] After an incubation at 4 °C for 24 h, the samples were centrifuged at 20,000g for 10 min, and the supernatants were collected. The samples (10 μl) were injected into a Thermo Scientific Vanquish UPLC system interfaced with a Thermo Scientific TSQ Quantiva triple-stage quadrupole mass spectrometer equipped with an H-ESI ion source. MS detection was conducted in negative ionization mode, and the transitions monitored for each metabolite are listed in Sup. Table S2. The operational mass spectrometric parameters included a capillary voltage of 4.5 kV; sheath gas of 35 arbitrary units; auxiliary gas of 10 arbitrary units; sweep gas of two arbitrary units; ion transfer tube temperature of 350 °C; vaporizer temperature of 450 °C; dwell time of 50 ms per transition; collision energy of 5 V; and collision-induced dissociation gas of 1.5 mTorr. Chromatographic separation was performed on a Kinetex […] (100 × 2.1 mm; 1.7 μm particle size) from Phenomenex. The mobile phase consisted of solvent A: water (0.1% formic acid) and solvent B: acetonitrile (0.1% formic acid). The flow rate was set at 0.3 ml/min, and the autosampler was maintained at 4 °C throughout the analysis.

[5] = biological target: ENT2; settings: classical nucleoside transporter inhibitors; no reference given; cited from earlier work
[6] = biological target: ENT1; settings: classical nucleoside transporter inhibitors; no reference given; cited from earlier work
[7] = biological target: T2, ENT2; assay: Inhibition of 3H-CA transport by ENT2 in oocytes by nucleoside transporter inhibitors; format: cell-based; design: expressed in transfected cells; host or cells: Xenopus laevis oocytes injected with in vitro-transcribed capped mRNA from pOX-hENT2; settings: inhibitor at 10 μM (Fig. 2D legend 100 μM), pH 7.4
Protocol: Next, we asked whether the transport patterns of the above BAs mediated by ENT2 are similar to those of nucleoside transport in terms of pharmacological inhibition or pH-dependent properties.
Oocytes were procured from Ecocyte. Prior to experiments, procured oocytes were defolliculated by treating with collagenase A-OR II solution followed by washing with Barth’s solution. Following microscopic verification, selected oocytes were incubated to recover overnight at 25 °C in a shaker incubator. Fifty nanoliters (400–800 ng/μl) of equal amounts of mRNAs were injected into defolliculated oocytes the next day. […] The injected oocytes were incubated at 15 °C for 24 h before transport assays were performed. The uptake of radiolabeled substrates was measured after a 30 min incubation in transport buffer (100 mM NaCl, 2 mM KCl, 1 mM CaCl2, 1 mM MgCl2, and 10 mM Hepes, pH 7.4) at room temperature. Uptake was terminated by washing the oocytes three times with arrest buffer containing 20 mM uridine. Individual oocytes were shaken overnight in 10% SDS for complete dissolution, and then the radioactivity was quantified with a Beckman liquid scintillation counter. The data are presented as the mean ± SD (n = 8–12 oocytes). A representative experiment from 3 to 5 independent experiments is presented.

Compound	IC50 [1] [µM]	ENT1 % uptake inhibition (Ado) [1] [%]	IC50 [2] [µM]	ENT2 % uptake inhibition (Ado) ([2]; BA 100 μM)	IC50 [3] [µM]	ENT3 % uptake inhibition (Ado) ([3]; BA 100 μM) [%]	transport by ENT2 mRNA-injected vs water-injected oocytes (LC-MS/MS) [4]	other results
C[C@H](CCC(=O)O)[C@H]1CC[C@H]2[C@@H]3[C@H](O)C[C@@H]4C[C@H](O)CC[C@]4(C)[C@H]3CC[C@]12C [CDCA, chenodeoxycholic acid]	24.3 ± 7	69.12	22.9 ± 4.9	66.07%	0.3 ± 0.1	77.0	significant transport	inhibition of guanosine transport mediated by ENT2 ([2]; BA 100 μM, 3H-guanosine 20 μM): not statistically significant
C[C@H](CCC(=O)O)[C@H]1CC[C@H]2[C@@H]3[C@H](O)[C@H](O)[C@@H]4C[C@H](O)CC[C@]4(C)[C@H]3CC[C@]12C [hyocholic acid]	–	–	–	–	–	–	significant transport	–
COc1cc(C(=O)OCCCN2CCCN(CCCOC(=O)c3cc(OC)c(OC)c(OC)c3)CC2)cc(OC)c1OC [dilazep]	–	–	–	–	–	–	–	Ki [5]: ~10 µM; Ki [6]: ~0.01 µM; reduction of 3H-CA transport by ENT2 compared with uninhibited control [7]: 38.02%
C[C@H](CCC(=O)NCCS(=O)(=O)O)[C@H]1CC[C@H]2[C@@H]3[C@@H](O)C[C@@H]4C[C@H](O)CC[C@]4(C)[C@H]3CC[C@]12C [TUDCA, tauroursodeoxycholic acid]	204 ± 63	42.72	4.9 ± 1.1	77% and 77.30%	35.3 ± 16.4	62.6	–	inhibition of guanosine transport activity of ENT3 ([3]; BA 100 μM, 3H-guanosine 20 μM): inhibited
C[C@H](CCC(=O)NCCS(=O)(=O)O)[C@H]1CC[C@H]2[C@@H]3[C@@H](O)[C@@H](O)[C@@H]4C[C@H](O)CC[C@]4(C)[C@H]3CC[C@]12C [tauro-beta-muricholic acid]	–	–	–	–	–	–	significant transport	–
O=[N+]([O-])c1ccc(CSc2ncnc3c2ncn3C2OC(CO)C(O)C2O)cc1 (centres unmarked) [NBMPR, nitrobenzylthioinosine]	–	–	–	–	–	–	–	Ki [5]: ~10 µM; Ki [6]: ~0.01 µM; reduction of 3H-CA transport by ENT2 compared with uninhibited control [7]: 53.38%
OCCN(CCO)c1nc(N2CCCCC2)c2nc(N(CCO)CCO)nc(N3CCCCC3)c2n1 [dipyridamole]	–	–	–	–	–	–	–	Ki [5]: ~10 µM; Ki [6]: ~0.01 µM; reduction of 3H-CA transport by ENT2 compared with uninhibited control [7]: 34.57%
C[C@H](CCC(=O)O)[C@H]1CC[C@H]2[C@@H]3CC[C@@H]4C[C@H](O)CC[C@]4(C)[C@H]3CC[C@]12C [LCA]	66.9 ± 15.4	32.59	18.4 ± 4.5	71.04%	88.8 ± 27.4	71.2	–	–
C[C@H](CCC(=O)NCC(=O)O)[C@H]1CC[C@H]2[C@@H]3[C@H](O)C[C@@H]4C[C@H](O)CC[C@]4(C)[C@H]3C[C@H](O)[C@]12C [GCA, glycocholic acid]	39.5 ± 8.5	35.05	16.7 ± 3.9	72.22%	10.7 ± 4.6	68.0	significant transport	–
C[C@H](CCC(=O)O)[C@H]1CC[C@H]2[C@@H]3[C@@H](O)C[C@@H]4C[C@H](O)CC[C@]4(C)[C@H]3CC[C@]12C [ursodeoxycholic acid]	–	–	–	–	–	–	significant transport	–
C[C@H](CCC(=O)O)[C@H]1CC[C@H]2[C@@H]3[C@@H](O)[C@@H](O)[C@@H]4C[C@H](O)CC[C@]4(C)[C@H]3CC[C@]12C [beta-muricholic acid]	–	–	–	–	–	–	significant transport	–

— paper PMC12152883, “Bile acids inhibit equilibrative adenosine transport to alter adenosine receptor signaling in cholestasis” (The Journal of Biological Chemistry, 2025)
